Experimental data reported in US8334299B2, “β-carboline for the treatment of neurodegenerative diseases” (Ellneuroxx, Ltd., priority 2007, dated 2012).

Legend:
[1] = tested on: undifferentiated multipotent neuronal precursor cells from the midbrain of mouse embryos; assay: Differentiation of multipotent neuronal precursor cells with compound in culture medium; format: cell-based; details: 50 μM final concentration once per week
Method: To verify if 9-methyl-β-carboline increases the efficiency of culture media for the experiments with neurons and for tissue engineering, pilot experiments were carried out by way of example with undifferentiated multipotent neuronal precursor cells from the midbrain of mouse embryos (embryonic day 14). By suitable cultivation procedures a cell suspension was produced which was kept for four weeks in a medium that contained, inter alia, growth factors from fibroblasts and the skin (epidermal growth factor). After this time the neuronal precursor cells were differentiated in a medium to promote the maturation of neurons. After a week, about 40% of the cells could be stained by a neuronal marker (β-tubulin, type III). Most other cells were glial cells. A small percentage of the neurons could be colored additionally with the antibody for tyrosin hydroxylase (˜3%). This means that about three percent of the neurons were from the dopaminergic cell type. The enzyme tyrosin hydroxylase can only be found in the midbrain in dopaminergic neurons.
Under corresponding conditions 9-methyl-β-carboline (50 μM final concentration) were added to the culture medium once per week, also once to the differentiation medium. […]

[2] = tested on: human neuroblastoma cell line (SH-SY5Y-cells); assay: Differentiation and proliferation (bromodeoxyuridine incorporation) of human neuroblastoma cells; format: cell-based
Method: FIG. 5 Percentage of BrdU-positive cells of human neuroblastoma cells after incubation with 50 μM 9-methyl-β-carboline for 48 hours 10 DIV-12 DIV.
FIG. 6 Evidence of the reduction of cell proliferation by incorporation of bromodeoxyuridine into the cell nucleus chromatin.
The experiments were carried out with the human neuroblastoma cell line (SH-SY5Y-cells) and with a cell culture of primary nerve cells from the mice embryo midbrain. […] Moreover, the mentioned compounds induce in the primary culture from the mice embryo midbrain the generation of new, differentiated and functional dopaminergic neurons.
The question whether 9-Alkyl-β-carboline derivatives lead to the differentiation of neurons is of outstanding importance.
This cell line has many characteristics which dopaminergic neurons have as well. […] So this confirms the observations in the primary midbrain cultures that 9-methyl-β-carboline promotes the differentiation and thus the maturation of neuronal cells (FIG. 1a and FIG. 1b).
Cell proliferation can be measured by the incorporation of bromodeoxyuridine. […] This hints at a reduction of cell proliferation. This finding also supports the other findings that 9-alkyl-β-carboline derivatives promote cell differentiation.

[3] = tested on: midbrain cells in culture; assay: ATP content of midbrain culture; format: cell-based, mice; details: 50 μM, 48 hours
Method: FIG. 4c ATP concentration (ATP content) after incubation with 50 μM 9-methyl-β-carboline (9-Me-BV) for 48 hours 10 DIV-12 DIV.
In 48 hours about 20% of the cells in culture died. In cultures with a 9-Alkyl-β-carboline only about 10% of the cells died under the same conditions (FIG. 4b). Thus, the findings are in line with the LDH findings. ATP provides the cell with energy. […] The enzyme caspase-3 is an indicator for apoptosis. After 24 hours, the enzyme activity was reduced which hints at a reduction of apoptotic processes, after 48 hours, however, it was increased (FIG. 4d). The last finding hints at a switch of culture cells from reduced necrosis to apoptosis, thus a more precise regulation of cell death.

[4] = tested on: neurons (total); assay: Total number of neurons in midbrain culture (different dyes); format: cell-based, mice; details: 50 μM, 48 hours; not as much as dopaminergic neurons
Method: FIG. 3 Percentage of neurons (total) after incubation with 50 μM 9-methyl-β-carboline for 48 hours from 10 DIV-12 DIV.
9-methyl-β-carboline was used to show whether only dopaminergic neurons were influenced, or other neurons or glial cells as well. This question can be answered by the use of different dyes.

[5] = tested on: genes involved in neuronal differentiation, inflammation, apoptosis; assay: Microarray analysis of gene transcription in midbrain cultures; format: cell-based, mice; details: vs control cultures
Excerpt: These findings were further sustained by so-called microarray methods. The analyses confirm that the transcription of genes involved in neuronal differentiation is increased.

[6] = tested on: dopamine concentration in the striatum; assay: Chronic MPP+ infusion model of Parkinson's disease, dopamine concentration in the striatum; format: in vivo, rat; details: rat
Excerpt: In the diagram the dopamine (DA) levels of the left and right striatum of the single rats are indicated.
To investigate Parkinson's disease acute in vivo models are used for years although chronic models would be a better model for the disease. Another disadvantage of the acute models is that ca. 40% of the animals die from the application of the neurotoxin. Therefore, we have chosen a chronic model in which comparably very low doses of neurotoxin 1-methyl-4-phenylpyridinium (MPP^+) were infused for 28 days into the left lateral ventricle of the rat brain. The substance was continuously applied through osmotic minipumps. Thereby, casualties were completely avoided. After four weeks, either solvent or equimolar amounts of the sample substance, namely neuroprotective betacarboline, resp. 9-alkyl-betacarboline was infused for two weeks via the same catheter. In a preliminary study for dose-finding the MPP^+ dose which leads to a reduction by 40% of the dopamine concentration in the striatum was determined. The dopamine concentration in the striatum is a characteristic marker for Parkinson's disease in which a degeneration of dopaminergic neurons occurs.
The compounds A to L were tested as described in example 8. The test results of the compounds A to L are indicated in the following table in comparison to 9-methyl-β-carboline.

[7] = tested on: dopaminergic neurons; assay: 3H-dopamine uptake (dopamine transport capacity) in midbrain culture; format: cell-based, mice; details: 50 μM, 48 hours, 10 DIV-12 DIV
Method: FIG. 2b Dopamine transport capacity of dopaminergic neurons after 48 hours. ^3H-dopamine uptake after incubation with 50 μM 9-Me-BC for 48 hours from 10 DIV-12 DIV.
To obtain further hints that the number of dopaminergic neurons really has increased, the dopamine concentration was measured. […] Another characteristic and specificity of dopaminergic neurons is the transport of dopamine into the neurons. Dopamine cannot permeate the outer membrane of neurons because of its hydrophilic character. It must be actively and energy-dependently transported through the DAT mechanism.

For `Cn1c2ccccc2c2ccncc21` [9-methyl-β-carboline], the “increase of percentage of dopaminergic cells” value [1] was 25%, the “increase of amount of neurons compared to control conditions” value ([1]; 3 independent experiments) was 15% and the “installation of bromodeoxyuridine into the chromatin in the cell nucleus” value ([2]; 50 μM, 48 hours, BrdU-positive cells) was “decreases”. For the same compound, the “cellular extensions of neuroblastoma cells” value ([2]; human neuroblastoma cells) was “growth of cellular extensions”, the “proliferation of neuroblastoma cells vs control cells” value ([2]; human neuroblastoma cells) was “proliferate less than control cells” and the “concentration of ATP” value [3] was “increased”. For the same compound, the “total number of neurons” value [4] was “increases”, the “transcription of genes involved in apoptosis” value [5] was “transcribed less” and the “transcription of genes involved in neuronal differentiation” value [5] was “increased”. For the same compound, the “transcription of genes which activate inflammation processes” value [5] was “transcribed less”, the “dopamine concentration in the left striatum” value ([6]; 4 weeks MPP+ then 2 weeks compound (equimolar, 0.105 mg/kg/day) into left ventricle) was “normalized” and the “effect in an established model of Parkinson's disease” value ([6]; chronic MPP+ model) was “neuroprotective effect”. The “neuronal transport capacity of dopamine (3H-dopamine uptake)” value [7] was “increases”.
